Assay results from ChEMBL document CHEMBL3507680, “University of Dundee, Gates Library screen for HepG2 cell viability”.

Test: Human HepG2 cell viability assay in 384 well format
Type: toxicity, cell-based
Design: dose 125 nL, time 70.5 hour; concentration not given beside the values
Conditions: HepG2 cells, read-out: Inhibition

SMILES | cytotoxicity at 70.5 h [%]
Cc1ccc(S(=O)(=O)c2ncccc2CN2CCN(C)CC2)cc1 | -11.2
COCCNC(=O)CCN1C(=O)CC2(CCCC2)C1=O | -15.7
O=c1c(CN2CCSCC2)coc(O)c1CN1CCCC1 | 29.9
COCCn1cc(CC(=O)Nc2nc3c(s2)CCC3)c2ccccc21 | -6.21
CN1C(=O)COc2ccc(NC(=O)CCc3nc4cccnc4[nH]3)cc21 | -9.73
Cc1nn(-c2ccc(C(=O)O)cc2)c2c1C(c1cccs1)SCC(=O)N2 (configuration not stated) | 0.275
Cc1nn(-c2ccc(C(=O)O)cc2)c2c1C(C(C)C)SCC(=O)N2 (configuration not stated) | -2.14
Cc1cc(Br)c2c(c1)C1(CC(=O)Nc3c1cnn3C(C)C)C(=O)N2 (configuration not stated) | -24.3
Cc1ccc(S(=O)(=O)c2ncccc2CN2CCN(CCO)CC2)cc1 | -30.6
O=C(CCc1nc2ccccc2[nH]1)Nc1ccc2c(c1)OCC(=O)N2 | -11.6
CC(C)n1nc(O)c2c1NC(=O)CSC2c1cnn(C)c1 (configuration not stated) | -19.6
O=C(CCc1nc2cc(Br)cnc2[nH]1)NCCN1CCOCC1 | -10.2
O=C(CCc1nc2cccnc2[nH]1)Nc1ccc2c(c1)OCC(=O)N2 | -10.5
Cn1c(CN2CCOCC2)cc(=O)c(O)c1CN1CCOCC1 | -12.3
Cc1cc(C(=O)Nc2n[nH]c(C3CC3)n2)c2c(C)noc2n1 | 29
O=C(Nc1nnn[nH]1)c1cc(-c2ccc(Br)s2)n[nH]1 | -3.48
CN(C)CCCNC(=O)C1CC(=O)N(c2n[nH]c3cccc(F)c23)C1 (configuration not stated) | -26.2
COc1ccc2c(c1)c(C(=O)Nc1n[nH]c(C(C)C)n1)cn2C(C)C | 40.7
Cn1c(CN2CCOCC2)cc(=O)c(O)c1CN1CCCC1 | -6.51

SMILES | cytotoxicity at 70.5 h [%]
O=C(CCc1nnc2ccccn2c1=O)NCc1cccnc1 | -14.8
O=C(C1CC(=O)N(c2n[nH]c3cc(Br)ccc23)C1)N1CCOCC1 (configuration not stated) | -11.9
COCCn1ccc2ccc(C(=O)N3CCN(C(C)=O)CC3)cc21 | -13.7
CSCCC(Nc1nc(C)cc(C)n1)C(=O)NC(C)(C)CO (configuration not stated) | 25.7
O=C1CSC(c2ccsc2)c2c(n(C3CCCC3)[nH]c2=O)N1 (configuration not stated) | -12.7
Cc1cc(C)nc(NCCCC(=O)NCCn2ccc3ccccc32)n1 | -30.2
CSCCC(Nc1nc(C)cc(C)n1)C(=O)NC1CCCC1 (configuration not stated) | -12.6
COCCn1cc(CC(=O)Nc2cc(C)n(C)n2)c2ccccc21 | -5.22
Cc1ccc(CN2CCCC(c3nnc(CN4CCCC4)n3C)C2)s1 (configuration not stated) | -0.483
Cc1ncsc1CN1C[C@H](NC(=O)C2CCOCC2)[C@@H](C(C)C)C1 | -14.2
CCCN(Cc1nccn1C)C(=O)c1cc(C)nc(C)n1 | -9.67
Cc1cccc(-c2nc(CN3CCOCS3(=O)=O)c(C)o2)c1 | -6.34
CC(C)c1nc(CN(C)C(=O)CNS(=O)(=O)c2cccs2)cs1 | -6.67
Cc1cnccc1CN(C)C(=O)c1cccc(CCC(C)(C)O)c1 | -1.91
Cc1cc(N(C)CCN(C)C)n2nc(C)cc2n1 | -1.46
C=C(C)COc1ccccc1NC(=O)N1CCOCC1CO (configuration not stated) | 7.4
Cc1cc(F)ccc1CN1CCCC(O)(CN2CCCC2)C1 (configuration not stated) | -1.52
COc1ccc(CC2(CO)CCN(c3cc(C(N)=O)ccn3)CC2)cc1 | -2.15
COc1cc(F)ccc1C(C(=O)O)N(C)CCN1CCCC1 (configuration not stated) | 12.1

SMILES | cytotoxicity at 70.5 h [%]
COCc1cc(NCCCSc2nnc(C)s2)ncn1 | -6.65
COc1cc(N2CCC(c3nccn3Cc3ccccn3)CC2)ncn1 | -4.99
O=C1OCCN1Cc1cc(C(F)(F)F)ccc1F | -7.38
CNc1cc(C)nc(N2C[C@@H](C(=O)O)[C@H](C3CC3)C2)n1 | -1.21
Cc1c[nH]c(CN(C)C(C(=O)O)c2c(F)cccc2OC(C)C)n1 (configuration not stated) | 1.64
CCN1CCCC1CNC(=O)c1cc(COc2cccc(F)c2)[nH]n1 (configuration not stated) | 0.339
CCCc1nc(C)cc(N2CCC3(CCC(=O)N(CC(N)=O)C3)CC2)n1 | -8.54
C=C(C)COc1ccccc1NC(=O)NC1CCOCC1 | 2.28
Cc1ccccc1CN1CC[C@@]2(O)CCN(C(=O)C3CCC3)C[C@H]2C1 | 2.03
CN(Cc1ccccc1)C(=O)CCN1C[C@H](C2CC2)[C@@H](N(C)C)C1 | -10.8
c1ccc2c(c1)CC(CNCc1ccncc1)(N1CCCCC1)C2 | -4.17
CC(C)C(C)N(Cc1ccccn1)Cc1ccco1 (configuration not stated) | -22.8
Cc1nc(CN2CCCC(Cn3cncn3)C2)nc2ccccc12 (configuration not stated) | 19
Cc1cc(C)n(CC2CCCN2C(=O)c2cn[nH]c2C)n1 (configuration not stated) | -1.06
Cc1nc(C)n(C2CCCN(C(=O)c3ccc4nccn4c3)C2)n1 (configuration not stated) | 22.7
Cc1nc(C)n(C2CCCN(C(=O)c3ccc4[nH]nnc4c3)C2)n1 (configuration not stated) | 0.449
Cc1cc(C)cc(CNC(c2ccccc2)c2nccn2C)c1 (configuration not stated) | 1.26
CCOc1ncccc1C(=O)N1CCCC1Cn1nc(C)cc1C (configuration not stated) | 5.47
Cc1cc(C)n(CC2CCCN2C(=O)c2cccc(C#N)c2)n1 (configuration not stated) | -2.63
